Measurements from ChEMBL document CHEMBL1201862, “PubChem BioAssay data set” (2004).
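A five-concentration, 48-hour dose response in 96-well plates underlies each endpoint, interpolated linearly between surrounding concentrations. GI50: concentration for 50% inhibition of growth.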 Calls of active or inactive are those of the source. No stated cut-off is given here; in the data, active = GI50 up to about 1.1 µM and inactive = higher.

Key:
Test in all cases: NCI tumour cell line growth inhibition, 48 h
HCC 2998 = tested on: HCC 2998
UO-31 = tested on: UO-31
MDA-N = tested on: MDA-N
Malme-3M = tested on: Malme-3M
U-251 = tested on: U-251
A549 = tested on: A549
HT-29 = tested on: HT-29
SK-MEL-28 = tested on: SK-MEL-28
KM12 = tested on: KM12
CAKI-1 = tested on: CAKI-1
SF-539 = tested on: SF-539
SN12C = tested on: SN12C
SF-295 = tested on: SF-295
EKVX = tested on: EKVX
NCI-H226 = tested on: NCI-H226
RXF 393 = tested on: RXF 393
SNB-75 = tested on: SNB-75
T47D = tested on: T47D
LOX IMVI = tested on: LOX IMVI
SK-MEL-2 = tested on: SK-MEL-2

Compound | GI50 (HCC 2998) | GI50 (UO-31) | GI50 (MDA-N) | GI50 (Malme-3M) | GI50 (U-251) | GI50 (A549) | GI50 (HT-29) | GI50 (SK-MEL-28) | GI50 (KM12) | GI50 (CAKI-1) | GI50 (SF-539) | GI50 (SN12C) | GI50 (SF-295) | GI50 (EKVX) | GI50 (NCI-H226) | GI50 (RXF 393) | GI50 (SNB-75) | GI50 (T47D) | GI50 (LOX IMVI) | GI50 (SK-MEL-2)
Nc1ncnc2c1ccn2CC=C(CO)CO | > 100 µM (inactive) | > 100 µM (inactive) | > 100 µM (inactive) | > 100 µM (inactive) | > 100 µM (inactive) | > 100 µM (inactive) | > 100 µM (inactive) | > 100 µM (inactive) | > 100 µM (inactive) | > 100 µM (inactive) | > 100 µM (inactive) | > 100 µM (inactive) | > 100 µM (inactive) | > 100 µM (inactive) | 8.07 µM (inactive) | > 100 µM (inactive) | > 100 µM (inactive) | > 100 µM (inactive) | > 100 µM (inactive) | > 100 µM (inactive)
CCC(=O)C(CCN1CCC2(CCCc3ccccc32)CC1)(c1ccccc1)c1ccccc1 | 2.64 µM (inactive) | 2.39 µM (inactive) | 3.96 µM (inactive) | 1.91 µM (inactive) | 2.62 µM (inactive) | 3.63 µM (inactive) | 0.993 µM (active) | 4.65 µM (inactive) | 1.79 µM (inactive) | 3.44 µM (inactive) | 2.95 µM (inactive) | 2.29 µM (inactive) | 2.02 µM (inactive) | 4 µM (inactive) | 2.05 µM (inactive) | 2 µM (inactive) | 2.95 µM (inactive) | 3.29 µM (inactive) | 0.851 µM (active) | 2 µM (inactive)
CCOC(=O)CCC(NC(=O)c1ccc(NCc2ccc3nc(-c4ccccc4)c(Cl)nc3c2)c2ccccc12)C(=O)OCC (stereo not given) | > 100 µM (inactive) | > 100 µM (inactive) | > 100 µM (inactive) | > 100 µM (inactive) | > 100 µM (inactive) | > 100 µM (inactive) | > 100 µM (inactive) | > 100 µM (inactive) | > 100 µM (inactive) | > 100 µM (inactive) | > 100 µM (inactive) | > 100 µM (inactive) | > 100 µM (inactive) | > 100 µM (inactive) | > 100 µM (inactive) | > 100 µM (inactive) | > 100 µM (inactive) | 13.9 µM (inactive) | > 100 µM (inactive) | 72.9 µM (inactive)
CC1(C)CC(=O)c2c(nc(SSc3nc4c(c(-c5ccc(Br)cc5)c3C#N)C(=O)CC(C)(C)C4)c(C#N)c2-c2ccc(Br)cc2)C1 | > 10 µM (inactive) | > 10 µM (inactive) | > 10 µM (inactive) | > 10 µM (inactive) | > 10 µM (inactive) | > 10 µM (inactive) | > 10 µM (inactive) | > 10 µM (inactive) | > 10 µM (inactive) | > 10 µM (inactive) | > 10 µM (inactive) | > 10 µM (inactive) | > 10 µM (inactive) | > 10 µM (inactive) | > 10 µM (inactive) | > 10 µM (inactive) | > 10 µM (inactive) | > 10 µM (inactive) | > 10 µM (inactive) | > 10 µM (inactive)
